Reference: patent US20250197405A1, “HETEROAROMATIC COMPOUNDS AS PKMYT1 INHIBITORS AND USE THEREOF” (INSILICO MEDICINE IP LIMITED, priority 2022, published 2025)

The compounds below were run against PKMYT1 (Homo sapiens (Human), UniProt Q99640) (assay: PKMYT1 HTRF assay). Settings: Tracer 178, GST-Tb, compound 10 μM to 0.5 nM.
Assay type: binding
Experimental: Compound serial dilution was performed by Echo, and the final concentrations varied from 10 μM to 0.5 nM. 5 μL/well of Enzyme solution was added to the assay plate containing the compound. The plate was centrifuged at 1000 rpm for 1 min, and incubated at 25° C. for 15 min. […] Next, 5 μL of GST-Tb was added into the assay plate, the plate was centrifuged at 1000 rpm for 1 min, and incubated at 25° C. for 15 min. The assay plate was read on Envision.

PKMYT1, sequence (Q99640 whole entry): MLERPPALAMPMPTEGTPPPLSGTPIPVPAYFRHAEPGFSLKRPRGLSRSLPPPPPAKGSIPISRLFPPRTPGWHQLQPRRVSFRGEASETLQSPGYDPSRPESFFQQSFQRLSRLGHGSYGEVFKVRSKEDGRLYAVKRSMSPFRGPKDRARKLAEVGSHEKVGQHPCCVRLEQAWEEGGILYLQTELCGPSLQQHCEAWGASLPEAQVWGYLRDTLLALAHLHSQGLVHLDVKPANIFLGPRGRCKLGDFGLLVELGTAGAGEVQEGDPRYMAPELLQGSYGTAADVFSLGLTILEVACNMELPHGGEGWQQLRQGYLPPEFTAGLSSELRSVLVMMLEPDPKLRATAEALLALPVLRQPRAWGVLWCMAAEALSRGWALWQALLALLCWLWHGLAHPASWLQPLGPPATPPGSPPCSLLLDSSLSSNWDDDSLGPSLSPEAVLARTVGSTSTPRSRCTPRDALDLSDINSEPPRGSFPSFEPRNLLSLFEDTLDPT

Compound | IC50
COc1nc(C)nc2c1c(C(N)=O)c(N)n2-c1c(C)ccc(O)c1C (atropisomer, axis not shown) [Compound 7] | 1.5 nM
Cc1nc(N2CCC2)c2c(C(N)=O)c(N)n(-c3c(C)ccc(O)c3C)c2n1 (atropisomer, axis not shown) [Compound 8] | 13 nM
Cc1nc(Oc2cnn(C)c2)c2c(C(N)=O)c(N)n(-c3c(C)ccc(O)c3C)c2n1 (atropisomer, axis not shown) [Compound 9] | 2.8 nM
Cc1ccc(O)c(C)c1-n1c(N)c(C(N)=O)c2cnc(C(F)(F)F)nc21 [Compound 2] | 8.9 nM
Cc1ccc(O)c(C)c1-n1c(N)c(C(N)=O)c2c(=O)n(C)c(C)cc21 [Compound 3, 2-amino-1-(3-hydroxy-2,6-dimethylphenyl)-5,6-dimethyl-4-oxopyrrolo[3,2-c]pyridine-3-carboxamide] | 11.9 nM
Cc1ncc2c(C(N)=O)c(N)n(-c3c(C)ccc(O)c3Cl)c2n1 [Compound 4, 6-amino-7-(2-chloro-3-hydroxy-6-methylphenyl)-2-methylpyrrolo[2,3-d] pyrimidine-5-carboxamide] | 4.1 nM
Cc1nc(OC(F)F)c2c(C(N)=O)c(N)n(-c3c(C)ccc(O)c3C)c2n1 [Compound 10] | 3.4 nM
Cc1nc(OCF)c2c(C(N)=O)c(N)n(-c3c(C)ccc(O)c3C)c2n1 [Compound 11] | 2.3 nM
Cc1ccc(O)c(C)c1-n1c(N)c(C(N)=O)c2c(=O)n(CF)c(C)nc21 [Compound 12-P2] | 1.5 nM
